Data as given in PMC8596843, “Platinum Cyclooctadiene Complexes with Activity against Gram‐positive Bacteria” (Chemmedchem, 2021).

How the values were obtained:
[1] = system: Staphylococcus aureus (ATCC 43300, MRSA); assay: In vivo efficacy in MRSA-infected moth larvae; parameters: species or system Galleria mellonella; conditions: 24 h after drug administration; vs 10 % DMSO control; rifampicin 0.4 mg/mL, 10 µL
Description: Ethics Committee was obtained for use of human blood for haemolysis studies (approval number […]
G. mellonella larvae were reared in controlled environmental room at Macquarie University, Sydney, Australia at 26 °C and 65% humidity with a 12-hours light/dark cycle. Larvae (~200 mg) were individually injected with 10 µL of chemical into the last right proleg using a 100 μL syringe (Hamilton Ltd). The […]
Each compound was dissolved in DMSO and diluted to final concentrations of 1 µM, 100 µM and 10 mM. We injected 5 larvae for each dilution of each compound.
Larvae injected with different dilutions of DMSO (10-1, 10-3 and 10-5) were included as negative controls.
Following injection, the larvae were incubated at 26 °C and monitored every 24 h for 4 days. Larval performance was assessed according to the G. mellonella Health Index Scoring System.[1] The experiments were repeated three separate times.
Galleria larvae (weighing between 200-250 mg) were infected with […] cells of Staphylococcus aureus (ATCC 43300, MRSA) (suspended in 10 µL PBS) and incubated at 37 °C. Two hours later, 10 µL compounds of either Pt1 or Pt2 (0.4 mM) in 10% DMSO was injected to the other proleg of the larvae.
Larvae injected with 10% DMSO and Rifampicin (0.4 mg/mL) were included as controls. […] Bacterial number was determined by drop plate method. […] Bacterial number was counted after incubation for 24 h.

[2] = parameters: method as in PMID 33469147; conditions: mouse skin infection models, topical; cited from earlier work

| SMILES | reduction in CFU (bacterial load per larva) [1] | bacterial load [2] |
| --- | --- | --- |
| CO[C@H]1/C=C/O[C@@]2(C)Oc3c(C)c(O)c4c(O)c(c(/C=N/N5CCN(C)CC5)c(O)c4c3C2=O)NC(=O)/C(C)=C\C=C\[C@H](C)[C@H](O)[C@@H](C)[C@@H](O)[C@@H](C)[C@H](OC(C)=O)[C@@H]1C [Rifampicin] | 2 log | – |
| C=C(C)[C@@H]1CCC(C)=C[C@H]1c1c(O)cc(CCCCC)cc1O [cannabidiol] | – | able to reduce bacterial load |
